Measured values from patent publication US10993935B2, “Compositions and methods for treatment of lung infections” (priority 2018, dated 2021).
Converted amounts (≈) assume the structure as drawn. Read-outs that look alike come from different tables or passages of the source.

What was measured:
Acinetobacter baumannii = experiment: RFX MIC testing against MDR clinical isolates; assay type: cell-based
Description: (§1) Minimum Inhibitory Concentration Testing. MIC testing was performed as previously described. Briefly, overnight culture of bacteria was diluted in 1:100 of a 0.5 McFarland standard as inoculum. The same number of cells was grown in LB broth containing serial, two-fold dilutions of rifaximin (RFX) or tobramycin (TOB). Growth was measured via optical density (OD) at 600 nm after 24 h incubation at 37° C. Concentrations of antibiotic required for inhibition of 50% and 90% of strains were determined.
(§2) Because RFX was not a traditional treatment for P. aeruginosa infections, it was first tested whether RFX was effective in vitro against P. aeruginosa and other bacterial pathogens seen in CF. Since RFX is not used for treatment of ventilator-associated pneumonia (VAP), it was thought the isolates of tracheal aspirates from VAP patients in the ICU may be sensitive to RFX. To determine the susceptibility to RFX, resistant isolates from the Cabell Huntington Hospital were chosen to measure the minimum inhibitory concentrations (MIC) for RFX (Table 3).
(§3) MIC50 and MIC90 are the concentrations of RFX required for the growth inhibition of 50% and 90% of strains, respectively.

Burkholderia cepacia = experiment: RFX MIC testing against MDR clinical isolates; assay type: cell-based
Description: as §1, §2, §3

Pseudomonas aeruginosa = experiment: RFX MIC testing against MDR clinical isolates; assay type: cell-based
Description: as §1, §2, §3

Staphylococcus aureus = experiment: RFX MIC testing against MDR clinical isolates; assay type: cell-based
Description: as §1, §2, §3

[1] = tested on: Stenotrophomonas maltophilia; experiment: RFX MIC testing against MDR clinical isolates; assay type: cell-based
Description: as §1, §2, §3

P. aeruginosa biofilms = experiment: Biofilm reduction assay (crystal violet); assay type: cell-based, Pseudomonas aeruginosa; settings: PAO1, CF001, CF010; 24 h biofilms treated at 3×MIC
Description: FIGS. 3A-3B include graphs showing biofilm and cell viability reduction from treatment with TOB and/or RFX, where (FIG. 3A) biofilms were grown for 24 h in a 96-well plate and then treated with TOB, RFX, or TOB and RFX at a concentration of 3×MIC, or where (FIG. 3B) biofilms were grown for 24 h in a 96-well plate and then treated with TOB, RFX, or TOB and RFX at concentration of 3×MIC. Two-way ANOVA analysis was used with statistical significance set as a P value of <0.01 (****, P<0.0001; **, P<0.001; *, P<0.01).
Biofilm Reduction Assay. A biofilm reduction assay was used to determine the reduction of biofilms in P. aeruginosa strains by TOB and/or RFX. Briefly, biofilms were grown in a flat bottom 96-well microplate (Corning) using 200 μl LB of 1.0-1.5×10^5 inoculum of lab and clinical strains of non-mucoid and mucoid P. aeruginosa. After 24-30 h incubation at 37° C., the media was removed, and plates were washed with PBS. New media containing 1-5×MIC90 of TOB and/or RFX was added to the plate in a checkerboard pattern to determine synergy of biofilm reduction. After 24 h incubation at 37° C., the media was removed and 200 μl of 0.1% aqueous crystal violet was added and left at room temperature 0.5 h. […] The plates were then read via OD at 595 nm using SpectraMax i3x plate reader to compare biofilm dispersion between TOB and/or RFX. […]

[2] = Stenotrophomonas maltophilia, 1 strain

Compound | MIC50 (Acinetobacter baumannii; Acinetobacter baumannii, 9 strains, concentration inhibiting growth of 50% of strains) [µg/mL] | MIC90 (Acinetobacter baumannii; Acinetobacter baumannii, 9 strains, concentration inhibiting growth of 90% of strains) [µg/mL] | growth of clinical isolates (Acinetobacter baumannii; clinical isolates, in words) | MIC50 (Burkholderia cepacia; Burkholderia cepacia, 4 strains, concentration inhibiting growth of 50% of strains) [µg/mL] | MIC90 (Burkholderia cepacia; Burkholderia cepacia, 4 strains, concentration inhibiting growth of 90% of strains) [µg/mL] | growth of clinical isolates (Burkholderia cepacia; clinical isolates, in words) | MIC50 (Pseudomonas aeruginosa; 26 MDR clinical isolates, concentration inhibiting growth of 50% of strains) [µg/mL] | MIC90 (Pseudomonas aeruginosa; 26 MDR clinical isolates, concentration inhibiting growth of 90% of strains) [µg/mL] | MIC50 (Pseudomonas aeruginosa; Pseudomonas aeruginosa, MDR P. aeruginosa, read-out: MIC50) [µg/mL] | MIC90 (Pseudomonas aeruginosa; Pseudomonas aeruginosa, MDR P. aeruginosa, read-out: MIC90) [µg/mL] | MIC50 (Staphylococcus aureus; 22 strains, concentration inhibiting growth of 50% of strains) [µg/mL] | MIC90 (Staphylococcus aureus; 22 strains, concentration inhibiting growth of 90% of strains) [µg/mL] | MIC50 (Staphylococcus aureus; MDR S. aureus including MRSA) [µg/mL] | MIC90 (Staphylococcus aureus; MDR S. aureus including MRSA) [µg/mL] | MIC50 [1, 2] [µg/mL] | MIC90 [1, 2] [µg/mL] | growth of clinical isolates ([1]; clinical isolates, in words) | reduction of preformed biofilm (biofilm aggregates) (P. aeruginosa biofilms)
CO[C@H]1/C=C/O[C@@]2(C)Oc3c(C)c(O)c4c(O)c(c5c(nc6cc(C)ccn65)c4c3C2=O)NC(=O)/C(C)=C\C=C\[C@H](C)[C@H](O)[C@@H](C)[C@@H](O)[C@@H](C)[C@H](OC(C)=O)[C@@H]1C [RFX, rifaximin] | < 0.5 | < 0.5 | effectively inhibit the growth | 16 (≈ 20.4 µM) | 32 (≈ 40.7 µM) | effectively inhibit the growth | 8 (≈ 10.2 µM) | 16 (≈ 20.4 µM) | 8 (≈ 10.2 µM) | 16 (≈ 20.4 µM) | 2 (≈ 2.54 µM) | 16 (≈ 20.4 µM) | 2 (≈ 2.54 µM) | 16 (≈ 20.4 µM) | 16 (≈ 20.4 µM) | 16 (≈ 20.4 µM) | effectively inhibit the growth | 
NC[C@H]1O[C@H](O[C@H]2[C@H](O)[C@@H](O[C@H]3O[C@H](CO)[C@@H](O)[C@H](N)[C@H]3O)[C@H](N)C[C@@H]2N)[C@H](N)C[C@@H]1O [TOB, tobramycin] |  |  |  |  |  |  |  |  |  |  |  |  |  |  |  |  |  | significantly reduced biofilm as compared to the untreated control
